{"source": "ChEMBL document CHEMBL1158459", "about": "“Discovery of a peroxisome proliferator activated receptor gamma (PPARgamma) modulator with balanced PPARalpha activity for the treatment of type 2 diabetes and dyslipidemia” (J Med Chem, 2009)", "key": {"Mus musculus [1]": {"test_system": "Mus musculus", "assay": "Antidiabetic activity in high fat diet-fed streptozotocin-treated mouse assessed as reduction in plasma glucose levels at 30 mg/kg, po once daily for 12 days relative to control", "assay_type": "functional", "parameters": "scale not given: the % may be the effect or the level left"}, "[2]": {"assay": "AUC in Beagle dog at 3 mg/kg, po once daily for 14 days", "assay_type": "ADME, organism-based, Canis lupus familiaris", "parameters": "dose 3 mg/kg, route oral", "details": "plasma"}, "Mus musculus [3]": {"test_system": "Mus musculus", "assay": "Antidiabetic activity in C57BLKS/J-m+/+Leprdb db/db mouse assessed as reduction in plasma triglyceride levels at 3 mg/kg, po once daily for 11 days relative to control", "assay_type": "functional", "parameters": "scale not given: the % may be the effect or the level left"}, "Rattus norvegicus [4]": {"test_system": "Rattus norvegicus", "assay": "Antidiabetic activity in Zucker fa/fa rat assessed as decrease in free fatty acid levels at 100 mg/kg, po once daily for 7 days", "assay_type": "functional, organism-based", "parameters": "dose 100 mg/kg"}, "[5]": {"molecular_target": "Thyroid hormone receptor beta (Homo sapiens) (UniProt P10828)", "sequence (P10828 whole entry)": "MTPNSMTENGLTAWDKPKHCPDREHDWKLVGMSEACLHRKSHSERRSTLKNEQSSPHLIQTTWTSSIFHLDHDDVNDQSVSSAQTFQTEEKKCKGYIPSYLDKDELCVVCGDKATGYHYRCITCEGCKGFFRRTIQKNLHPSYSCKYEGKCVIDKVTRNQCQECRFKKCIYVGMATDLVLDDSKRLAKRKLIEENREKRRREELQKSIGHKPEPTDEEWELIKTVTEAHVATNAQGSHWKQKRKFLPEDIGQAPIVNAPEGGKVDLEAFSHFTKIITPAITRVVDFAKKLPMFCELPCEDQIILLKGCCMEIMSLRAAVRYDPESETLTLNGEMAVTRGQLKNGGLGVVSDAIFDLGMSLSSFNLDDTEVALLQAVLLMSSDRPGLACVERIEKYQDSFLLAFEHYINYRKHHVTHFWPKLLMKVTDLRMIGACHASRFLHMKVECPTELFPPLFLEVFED", "assay": "Activity at TRbeta receptor up to 10 uM by transactivation assay"}, "Rattus norvegicus [6]": {"test_system": "Rattus norvegicus", "assay": "Antidiabetic activity in Zucker fa/fa rat assessed as decrease in free fatty acid levels at 0.3 mg/kg, po once daily for 7 days", "assay_type": "functional, organism-based", "parameters": "dose 0.3 mg/kg"}, "[7]": {"molecular_target": "T1, Peroxisome proliferator-activated receptor alpha (Mus musculus, UniProt P23204)", "T1 sequence (P23204 whole entry)": "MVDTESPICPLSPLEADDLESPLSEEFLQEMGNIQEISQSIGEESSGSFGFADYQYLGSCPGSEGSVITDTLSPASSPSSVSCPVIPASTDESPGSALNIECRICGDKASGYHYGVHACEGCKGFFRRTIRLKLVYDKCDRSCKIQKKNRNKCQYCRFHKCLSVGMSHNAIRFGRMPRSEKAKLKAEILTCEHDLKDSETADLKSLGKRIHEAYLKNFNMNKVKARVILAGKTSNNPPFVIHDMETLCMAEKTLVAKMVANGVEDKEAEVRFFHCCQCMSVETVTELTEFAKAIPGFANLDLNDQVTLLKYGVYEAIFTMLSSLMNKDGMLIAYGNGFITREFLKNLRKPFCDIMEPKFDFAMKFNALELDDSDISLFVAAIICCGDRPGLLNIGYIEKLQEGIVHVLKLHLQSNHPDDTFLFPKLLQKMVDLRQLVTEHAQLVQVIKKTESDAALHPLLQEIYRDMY", "assay": "Agonist activity at mouse PPARalpha receptor expressed in african green monkey COS1 cells co-transfected with fused yeast Gal4-DBD by transactivation assay", "assay_type": "functional, cell-based, COS-1"}, "[8]": {"molecular_target": "Estrogen receptor beta (Homo sapiens) (UniProt Q92731)", "sequence (Q92731 whole entry)": "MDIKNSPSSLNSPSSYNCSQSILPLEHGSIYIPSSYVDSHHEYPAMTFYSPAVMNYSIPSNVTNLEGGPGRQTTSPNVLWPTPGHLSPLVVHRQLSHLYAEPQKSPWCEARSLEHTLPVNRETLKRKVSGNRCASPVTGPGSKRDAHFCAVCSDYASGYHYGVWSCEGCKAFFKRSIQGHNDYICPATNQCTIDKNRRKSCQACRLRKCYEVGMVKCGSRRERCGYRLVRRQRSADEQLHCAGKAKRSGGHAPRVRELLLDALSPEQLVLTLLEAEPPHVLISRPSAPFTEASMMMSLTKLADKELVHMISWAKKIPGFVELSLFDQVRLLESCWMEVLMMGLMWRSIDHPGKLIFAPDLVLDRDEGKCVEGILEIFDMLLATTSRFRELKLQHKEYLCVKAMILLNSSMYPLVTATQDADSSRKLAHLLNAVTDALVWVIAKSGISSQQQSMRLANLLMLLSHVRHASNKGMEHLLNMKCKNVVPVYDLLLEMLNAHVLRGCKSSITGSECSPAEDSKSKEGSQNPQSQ", "assay": "Activity at ERbeta receptor up to 10 uM by transactivation assay"}, "Mus musculus [9]": {"test_system": "Mus musculus", "assay": "Antidiabetic activity in C57BLKS/J-m+/+Leprdb db/db mouse assessed as reduction in plasma glucose levels at 10 mg/kg, po once daily for 11 days relative to control", "assay_type": "functional", "parameters": "scale not given: the % may be the effect or the level left"}, "[10]": {"molecular_target": "Thyroid hormone receptor alpha (Homo sapiens) (UniProt P10827)", "sequence (P10827 whole entry)": "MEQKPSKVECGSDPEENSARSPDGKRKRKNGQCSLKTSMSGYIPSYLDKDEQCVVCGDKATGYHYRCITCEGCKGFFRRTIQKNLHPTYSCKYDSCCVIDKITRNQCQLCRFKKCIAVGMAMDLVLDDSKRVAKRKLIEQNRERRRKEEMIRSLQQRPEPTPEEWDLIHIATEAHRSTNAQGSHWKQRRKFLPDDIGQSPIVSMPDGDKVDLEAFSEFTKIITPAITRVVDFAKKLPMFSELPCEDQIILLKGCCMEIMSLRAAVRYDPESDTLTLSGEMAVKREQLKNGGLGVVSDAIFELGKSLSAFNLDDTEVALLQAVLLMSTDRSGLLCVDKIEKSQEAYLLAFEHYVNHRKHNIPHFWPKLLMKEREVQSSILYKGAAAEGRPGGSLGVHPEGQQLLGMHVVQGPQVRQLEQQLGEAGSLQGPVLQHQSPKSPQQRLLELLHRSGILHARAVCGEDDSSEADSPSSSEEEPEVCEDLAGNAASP", "assay": "Activity at TRalpha receptor up to 10 uM by transactivation assay"}, "Rattus norvegicus [11]": {"test_system": "Rattus norvegicus", "assay": "Toxicity in Zucker fa/fa rat assessed as increase in plasma volume at 15 mg/kg, po treated once daily for 7 days", "assay_type": "organism-based", "parameters": "dose 15 mg/kg, route oral", "details": "in vivo, 168 h"}, "Syrian golden hamster [12]": {"test_system": "Syrian golden hamster", "assay": "Antidiabetic activity in Syrian golden hamster assessed as reduction in triglyceride level at 0.3 mg/kg, po once daily for 9 days relative to control", "assay_type": "functional, Mesocricetus auratus", "parameters": "scale not given: the % may be the effect or the level left"}, "[13]": {"molecular_target": "T2, Peroxisome proliferator-activated receptor gamma (Homo sapiens, UniProt P37231)", "T2 sequence (P37231 whole entry)": "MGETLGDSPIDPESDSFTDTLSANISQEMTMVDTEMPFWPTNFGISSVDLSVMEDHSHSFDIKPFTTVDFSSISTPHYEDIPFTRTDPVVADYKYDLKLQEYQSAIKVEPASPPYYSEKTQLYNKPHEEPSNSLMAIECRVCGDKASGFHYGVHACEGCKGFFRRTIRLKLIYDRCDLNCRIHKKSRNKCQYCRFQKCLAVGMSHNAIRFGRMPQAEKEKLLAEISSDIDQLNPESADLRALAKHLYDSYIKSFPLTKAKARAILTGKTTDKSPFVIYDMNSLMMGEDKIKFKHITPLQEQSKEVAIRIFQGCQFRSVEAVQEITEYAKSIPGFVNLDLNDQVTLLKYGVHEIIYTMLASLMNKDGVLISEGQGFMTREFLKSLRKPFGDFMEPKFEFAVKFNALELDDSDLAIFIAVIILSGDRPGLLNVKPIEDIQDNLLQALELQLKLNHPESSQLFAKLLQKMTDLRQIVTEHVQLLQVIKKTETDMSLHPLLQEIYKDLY", "description": "Inhibition of human PPARgamma receptor by scintillation proximity assay"}, "Rattus norvegicus [14]": {"test_system": "Rattus norvegicus", "assay": "Antidiabetic activity in Zucker fa/fa rat assessed as decrease in free fatty acid levels at 15 mg/kg, po once daily for 7 days", "assay_type": "functional, organism-based", "parameters": "dose 15 mg/kg"}, "[15]": {"molecular_target": "Oxysterols receptor LXR-alpha (Homo sapiens) (UniProt Q13133)", "sequence (Q13133 whole entry)": "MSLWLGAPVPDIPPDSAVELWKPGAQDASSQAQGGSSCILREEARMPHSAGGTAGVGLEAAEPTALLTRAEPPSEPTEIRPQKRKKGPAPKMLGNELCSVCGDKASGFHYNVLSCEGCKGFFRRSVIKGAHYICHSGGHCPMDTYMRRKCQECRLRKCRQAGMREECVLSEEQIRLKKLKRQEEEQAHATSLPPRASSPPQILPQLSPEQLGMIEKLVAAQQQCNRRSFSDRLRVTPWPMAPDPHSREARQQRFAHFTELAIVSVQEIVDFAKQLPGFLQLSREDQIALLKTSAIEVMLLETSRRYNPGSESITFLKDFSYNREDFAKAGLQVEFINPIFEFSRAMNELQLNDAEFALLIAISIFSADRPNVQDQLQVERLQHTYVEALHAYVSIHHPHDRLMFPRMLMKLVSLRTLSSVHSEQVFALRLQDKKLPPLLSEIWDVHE", "assay": "Binding affinity to LXRalpha up to 10 uM"}, "Canis familiaris": {"test_system": "Canis familiaris", "assay": "Antidiabetic activity in Beagle dog assessed as reduction in total cholesterol level at 3 mg/kg, po once daily for 14 days relative to control", "assay_type": "functional, Canis lupus familiaris", "parameters": "scale not given: the % may be the effect or the level left"}, "Rattus norvegicus [16]": {"test_system": "Rattus norvegicus", "assay": "Antidiabetic activity in Zucker fa/fa rat assessed as decrease in triglyceride levels at 10 mg/kg, po once daily for 7 days", "assay_type": "functional, organism-based", "parameters": "dose 10 mg/kg"}, "Mus musculus [17]": {"test_system": "Mus musculus", "assay": "Antidiabetic activity in C57BLKS/J-m+/+Leprdb db/db mouse assessed as reduction in plasma glucose levels at 3 mg/kg, po once daily for 11 days relative to control", "assay_type": "functional", "parameters": "scale not given: the % may be the effect or the level left"}, "Rattus norvegicus [18]": {"test_system": "Rattus norvegicus", "assay": "Antidiabetic activity in Zucker fa/fa rat assessed as decrease in free fatty acid levels at 0.03 mg/kg, po once daily for 7 days", "assay_type": "functional, organism-based", "parameters": "dose 0.03 mg/kg"}, "[19]": {"molecular_target": "Glucocorticoid receptor (Homo sapiens) (UniProt P04150)", "sequence (P04150 whole entry)": "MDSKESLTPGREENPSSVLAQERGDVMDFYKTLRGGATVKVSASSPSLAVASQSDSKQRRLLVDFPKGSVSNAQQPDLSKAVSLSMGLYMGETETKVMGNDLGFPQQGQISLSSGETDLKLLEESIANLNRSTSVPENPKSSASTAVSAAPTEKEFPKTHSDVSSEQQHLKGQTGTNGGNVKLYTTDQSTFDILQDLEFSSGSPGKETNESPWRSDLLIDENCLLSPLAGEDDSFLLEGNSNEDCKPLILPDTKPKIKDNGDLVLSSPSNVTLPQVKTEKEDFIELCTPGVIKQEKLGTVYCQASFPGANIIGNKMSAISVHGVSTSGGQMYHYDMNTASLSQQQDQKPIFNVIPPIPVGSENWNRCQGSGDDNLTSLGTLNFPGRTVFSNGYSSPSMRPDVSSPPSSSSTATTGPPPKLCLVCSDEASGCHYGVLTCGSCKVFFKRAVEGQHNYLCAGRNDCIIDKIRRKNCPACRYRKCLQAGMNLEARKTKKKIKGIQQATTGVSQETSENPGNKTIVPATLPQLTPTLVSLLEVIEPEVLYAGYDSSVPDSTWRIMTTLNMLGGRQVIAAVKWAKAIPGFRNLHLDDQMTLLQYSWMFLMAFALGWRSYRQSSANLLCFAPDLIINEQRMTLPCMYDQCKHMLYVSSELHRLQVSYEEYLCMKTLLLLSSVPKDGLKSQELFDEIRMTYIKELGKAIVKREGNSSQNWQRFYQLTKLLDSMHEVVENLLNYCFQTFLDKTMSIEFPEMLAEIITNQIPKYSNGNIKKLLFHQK", "assay": "Binding affinity to GR up to 10 uM"}, "Rattus norvegicus [20]": {"test_system": "Rattus norvegicus", "assay": "Antidiabetic activity in Zucker fa/fa rat assessed as decrease in triglyceride levels at 15 mg/kg, po once daily for 7 days", "assay_type": "functional, organism-based", "parameters": "dose 15 mg/kg"}, "Cytochrome P450 1A2": {"molecular_target": "Cytochrome P450 1A2 (Homo sapiens, UniProt P05177)", "sequence (P05177 whole entry)": "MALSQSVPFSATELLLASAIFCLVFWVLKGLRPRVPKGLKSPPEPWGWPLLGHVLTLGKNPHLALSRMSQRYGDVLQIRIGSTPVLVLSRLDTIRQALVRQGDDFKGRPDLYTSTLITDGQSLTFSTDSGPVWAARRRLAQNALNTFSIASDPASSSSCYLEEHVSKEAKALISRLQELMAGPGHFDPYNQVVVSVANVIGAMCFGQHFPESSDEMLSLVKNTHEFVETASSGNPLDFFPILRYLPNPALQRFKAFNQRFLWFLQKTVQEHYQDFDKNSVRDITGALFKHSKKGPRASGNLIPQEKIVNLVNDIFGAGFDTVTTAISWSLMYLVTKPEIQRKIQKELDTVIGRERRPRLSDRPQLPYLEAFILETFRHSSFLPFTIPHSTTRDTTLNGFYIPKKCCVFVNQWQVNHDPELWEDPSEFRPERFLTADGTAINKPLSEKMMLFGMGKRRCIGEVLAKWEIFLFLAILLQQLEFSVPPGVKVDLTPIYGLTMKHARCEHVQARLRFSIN", "assay": "Inhibition of CYP1A2", "assay_type": "ADME"}, "Cytochrome P450 2C19": {"molecular_target": "Cytochrome P450 2C19 (Homo sapiens, UniProt P33261)", "sequence (P33261 whole entry)": "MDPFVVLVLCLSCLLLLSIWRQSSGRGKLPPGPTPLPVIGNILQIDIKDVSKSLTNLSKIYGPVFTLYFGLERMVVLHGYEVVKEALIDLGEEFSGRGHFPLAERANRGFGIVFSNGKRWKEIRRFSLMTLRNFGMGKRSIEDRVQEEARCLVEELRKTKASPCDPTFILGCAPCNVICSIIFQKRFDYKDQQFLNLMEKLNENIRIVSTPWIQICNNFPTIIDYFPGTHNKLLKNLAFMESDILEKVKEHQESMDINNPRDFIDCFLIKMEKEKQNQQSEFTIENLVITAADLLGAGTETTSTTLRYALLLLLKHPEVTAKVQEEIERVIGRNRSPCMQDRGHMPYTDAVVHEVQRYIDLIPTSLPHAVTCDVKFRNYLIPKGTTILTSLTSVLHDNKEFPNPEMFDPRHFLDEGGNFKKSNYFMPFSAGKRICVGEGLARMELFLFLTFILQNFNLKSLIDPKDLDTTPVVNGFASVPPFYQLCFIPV", "assay": "Inhibition of CYP2C19", "assay_type": "ADME"}, "[21]": {"molecular_target": "T3, Nuclear receptor subfamily 1 group I member 2 (Homo sapiens, UniProt O75469)", "T3 sequence (O75469 whole entry)": "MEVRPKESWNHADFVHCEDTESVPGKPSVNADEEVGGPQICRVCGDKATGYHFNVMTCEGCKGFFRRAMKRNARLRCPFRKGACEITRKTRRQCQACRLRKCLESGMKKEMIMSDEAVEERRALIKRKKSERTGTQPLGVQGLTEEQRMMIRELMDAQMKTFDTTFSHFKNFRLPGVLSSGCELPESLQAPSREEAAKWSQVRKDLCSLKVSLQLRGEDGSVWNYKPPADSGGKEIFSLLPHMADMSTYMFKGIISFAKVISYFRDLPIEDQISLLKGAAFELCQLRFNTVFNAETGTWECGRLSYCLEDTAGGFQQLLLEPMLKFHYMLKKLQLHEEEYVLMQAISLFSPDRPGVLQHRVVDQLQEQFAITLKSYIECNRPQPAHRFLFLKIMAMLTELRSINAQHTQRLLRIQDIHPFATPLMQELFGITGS", "assay": "Binding affinity to PXR up to 10 uM"}, "Syrian golden hamster [22]": {"test_system": "Syrian golden hamster", "assay": "Antidiabetic activity in Syrian golden hamster assessed as reduction in triglyceride level at 1 mg/kg, po once daily for 9 days relative to control", "assay_type": "functional, Mesocricetus auratus", "parameters": "scale not given: the % may be the effect or the level left"}, "Rattus norvegicus [23]": {"test_system": "Rattus norvegicus", "assay": "Toxicity in Zucker fa/fa rat assessed as increase in heart weight at 15 mg/kg, po treated once daily for 7 days", "assay_type": "organism-based", "parameters": "dose 15 mg/kg, route oral", "details": "in vivo, 168 h"}, "[24]": {"molecular_target": "Retinoic acid receptor RXR-alpha (Homo sapiens) (UniProt P19793)", "sequence (P19793 whole entry)": "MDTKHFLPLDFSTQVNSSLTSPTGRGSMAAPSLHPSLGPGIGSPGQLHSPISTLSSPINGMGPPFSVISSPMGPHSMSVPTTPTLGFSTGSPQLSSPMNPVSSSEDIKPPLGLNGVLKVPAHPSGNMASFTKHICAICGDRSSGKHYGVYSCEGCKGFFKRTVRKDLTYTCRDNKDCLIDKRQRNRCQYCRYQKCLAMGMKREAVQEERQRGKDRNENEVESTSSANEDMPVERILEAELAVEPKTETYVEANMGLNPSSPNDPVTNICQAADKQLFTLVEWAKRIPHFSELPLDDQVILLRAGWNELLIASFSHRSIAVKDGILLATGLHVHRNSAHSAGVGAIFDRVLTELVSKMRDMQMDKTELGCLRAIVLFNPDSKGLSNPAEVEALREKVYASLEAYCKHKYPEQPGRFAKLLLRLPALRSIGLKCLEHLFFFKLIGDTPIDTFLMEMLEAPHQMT", "assay": "Activity at RXRalpha receptor up to 10 uM by transactivation assay"}, "[25]": {"assay": "AUC in C57BLKS/J-m+/+Leprdb db/db mouse at 10 mg/kg, po once daily for 11 days", "assay_type": "ADME, organism-based", "parameters": "dose 10 mg/kg, route oral", "details": "plasma"}, "[26]": {"assay": "AUC in high fat diet-fed streptozotocin-treated mouse at 30 mg/kg, po once daily for 12 days", "assay_type": "ADME, organism-based", "parameters": "dose 30 mg/kg, route oral", "details": "plasma"}, "Mus musculus [27]": {"test_system": "Mus musculus", "assay": "Antidiabetic activity in ob/ob mouse assessed as reduction in plasma triglyceride levels at 3 mg/kg, po once daily for 5 days relative to control", "assay_type": "functional", "parameters": "scale not given: the % may be the effect or the level left"}, "[28]": {"molecular_target": "T3, Nuclear receptor subfamily 1 group I member 2", "assay": "Activity at PXR receptor up to 10 uM by transactivation assay"}}, "note": "Activity calls are given as the source filed them. The rule behind the calls is not given here."}
{"compound": "CC[C@@H](Oc1cccc(Cn2c(C)c(C(=O)c3ccc(Cl)cc3)c3ccc(OC(F)(F)F)cc32)c1)C(=O)O", "values": [{"measurement": "Activity", "setting": "Mus musculus [1]", "value": 103, "unit": "%"}, {"measurement": "AUC at 336 h", "setting": "[2]", "value": 21.4, "unit": "µM·h"}, {"measurement": "Activity", "setting": "Mus musculus [3]", "value": 85, "unit": "%"}, {"measurement": "Activity", "setting": "Rattus norvegicus [4]", "value": "Active"}, {"measurement": "Activity", "setting": "[5]", "value": "inactive"}, {"measurement": "Activity", "setting": "Rattus norvegicus [6]", "value": "Active"}, {"measurement": "EC50", "setting": "[7]", "value": 0.12, "unit": "µM"}, {"measurement": "Activity", "setting": "[8]", "value": "inactive"}, {"measurement": "Activity", "setting": "Mus musculus [9]", "value": 101, "unit": "%"}, {"measurement": "Activity", "setting": "[10]", "value": "inactive"}, {"measurement": "Activity", "setting": "Rattus norvegicus [11]", "value": "Non-toxic"}, {"measurement": "Activity", "setting": "Syrian golden hamster [12]", "value": 10.1, "unit": "%"}, {"measurement": "IC50", "setting": "[13]", "value": 0.009, "unit": "µM"}, {"measurement": "Activity", "setting": "Rattus norvegicus [14]", "value": "Active"}, {"measurement": "Activity", "setting": "[15]", "value": "inactive"}, {"measurement": "Activity", "setting": "Canis familiaris", "value": 26, "unit": "%"}, {"measurement": "Activity", "setting": "Rattus norvegicus [16]", "value": "Active"}, {"measurement": "Activity", "setting": "Mus musculus [17]", "value": 98, "unit": "%"}, {"measurement": "Activity", "setting": "Rattus norvegicus [18]", "value": "Active"}, {"measurement": "Activity", "setting": "[19]", "value": "inactive"}, {"measurement": "Activity", "setting": "Rattus norvegicus [20]", "value": "Active"}, {"measurement": "IC50", "setting": "Cytochrome P450 1A2", "value": 40, "unit": "µM"}, {"measurement": "IC50", "setting": "Cytochrome P450 2C19", "value": 91, "unit": "µM"}, {"measurement": "Activity", "setting": "[21]", "value": "Not Active"}, {"measurement": "Activity", "setting": "Syrian golden hamster [22]", "value": 30.7, "unit": "%"}, {"measurement": "Activity", "setting": "Rattus norvegicus [23]", "value": "Non-toxic"}, {"measurement": "Activity", "setting": "[24]", "value": "inactive"}, {"measurement": "AUC at 264 h", "setting": "[25]", "value": 9.6, "unit": "µM·h"}, {"measurement": "AUC at 288 h", "setting": "[26]", "value": 8.2, "unit": "µM·h"}, {"measurement": "Activity", "setting": "Mus musculus [27]", "value": 27, "unit": "%"}, {"measurement": "Activity", "setting": "[28]", "value": "Not Active"}]}
